Measurements as given in PubChem BioAssay (NCI).
Values joined by “and” are separate entries in the source; they are usually repeats but may differ in a detail not shown here. Identical values can stand only once.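 These data come from cells grown in 96-well plates and exposed to compound for 48 hours at five concentrations. Abbreviation: GI50, concentration required for 50% inhibition of growth. At the TGI there is no net growth.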

What was measured:
Assay in all cases: inhibition of tumour cell growth, NCI panel, 48 h
[1] = test system: EKVX NSCLC
[2] = test system: K-562 leukemia
[3] = test system: OVCAR-8 ovarian
[4] = test system: RPMI-8226 leukemia
[5] = test system: SF-295 CNS
[6] = test system: SK-MEL-5 melanoma
[7] = test system: TK-10 renal
[8] = test system: CAKI-1 renal
[9] = test system: DU-145 prostate
[10] = test system: MCF7 breast

Row | Compound | TGI [1] | TGI [2] | TGI [3] | TGI [4] | TGI [5] | TGI [6] | TGI [7] | GI50 [8] | TGI [8] | GI50 [9] | TGI [9] | GI50 [10] | TGI [10] | GI50 [3] | GI50 [4] | GI50 [5] | GI50 [6] | GI50 [7] | GI50 [1] | GI50 [2]
1 | N#CC(C(=O)/C(=N/N)C(C#N)c1ccc(Cl)cc1)c1ccc(Cl)cc1 (stereo unspecified) | > 100 µM | > 100 µM | > 100 µM | > 100 µM | > 100 µM | > 100 µM | > 100 µM |  |  |  |  |  |  |  |  |  |  |  |  | 
2 | C1CC[N-]CC1.C1CC[N-]CC1.C1CC[N-]CC1.C1CC[N-]CC1.[Cl][Rh][Cl] |  |  | > 100 µM | 13.6 µM | 81.1 µM | 18.9 µM | > 100 µM | 67.7 µM | > 100 µM | 6.3 µM | 53.8 µM | 10.2 µM | > 100 µM | 4.07 µM | 3.2 µM | 3 µM | 4.2 µM | 23.6 µM |  | 
3 | CC(=O)OC1C(=O)C(O)C(C)OC1O[C@@H]1C[C@@]2(C)[C@@H]3CC=C4[C@@H](C[C@H](O)C(=O)C4(C)C)[C@]3(C)C(=O)C[C@]2(C)[C@H]1[C@@](C)(O)C(=O)/C=C/C(C)(C)O (stereo partly specified) | > 7.55 µM | > 10 µM | > 10 µM | 8.04 µM | 7.19 µM | 8.4 µM | 3.44 µM |  | 2.98 µM |  |  |  |  |  |  |  |  |  |  | 
4 | CCCN(CCCCC(NC(C)=O)C(=O)NCc1ccccc1)C(=O)NCCCl (stereo unspecified) | > 100 µM | > 100 µM | > 100 µM | > 100 µM | > 100 µM | > 100 µM | > 100 µM |  | > 100 µM |  |  |  |  |  |  |  |  |  |  | 
5 | Cc1ccc(NC(=O)CC2C(=O)Nc3ccccc3S2=O)cc1C (stereo unspecified) | > 100 µM | > 100 µM | > 100 µM | > 100 µM | > 100 µM | > 100 µM | > 100 µM |  | > 100 µM |  |  |  |  |  |  |  |  |  |  | 
6 | CC1OC(n2ncc(=O)[nH]c2=O)C=CC1=O (stereo unspecified) |  | > 100 µM | > 100 µM | 99.3 µM and 62 µM | > 100 µM |  | > 100 µM |  | > 100 µM |  |  |  |  |  |  |  |  |  |  | 
7 | CC(CN(CP(=O)([O-])[O-])CP(=O)([O-])[O-])N(CP(=O)([O-])[O-])CP(=O)([O-])[O-].N.N.[Pt+2] (stereo unspecified) | > 100 µM | > 100 µM | > 100 µM | > 100 µM | > 100 µM | > 100 µM | > 100 µM | > 100 µM | > 100 µM |  |  |  |  | > 100 µM | > 100 µM | > 100 µM | > 100 µM | > 100 µM | > 100 µM | > 100 µM
8 | COc1ccc(/C=N/N=C(\N)NO)cc1OC | > 100 µM | > 100 µM | > 100 µM | > 100 µM | > 100 µM | 58.3 µM | > 100 µM |  | 92.3 µM |  |  |  |  |  |  |  |  |  |  | 
9 | COc1ccc2[nH]c(-c3ccccn3)cc(=O)c2c1 | > 100 µM | > 100 µM | > 100 µM | > 100 µM | > 100 µM | > 100 µM | > 100 µM |  |  |  |  |  |  |  |  | 51.5 µM | 28.5 µM |  |  | 
10 | O=C1NC(=S)NC(=O)C1=Cc1cc2c(cc1[N+](=O)[O-])OCO2 | > 100 µM | > 100 µM | > 100 µM | > 100 µM |  | > 100 µM | > 100 µM |  | > 100 µM |  |  |  |  |  |  |  |  |  |  | 
11 | Cc1cccc(-c2nc3c(C(=O)NCCN(C)C)cccc3[nH]2)c1 | 3.5 µM | > 100 µM | 7.02 µM | 9.49 µM | 3.9 µM | 3 µM | 4.95 µM |  | 10.3 µM |  |  |  |  |  |  |  |  |  |  | 
